{
  "source": "patent US20240139026A1",
  "about": "“Ophthalmic Lenses And Methods For Correcting, Slowing, Reducing, And/Or Controlling The Progression Of Myopia In Conjunction With Use Of Atropine Or Related Compounds” (Brien Holden Vision Institute Limited, priority 2020, published 2024)",
  "key": {"[1]": {"system": "myopic eye of an individual", "assay": "Spherical aberration of combined spectacle lens and eye system with Atropine-enlarged pupil", "assay_type": "in vivo", "details": "-2.00 D myope; pupillary diameter increase from about 3 mm to about 6 mm with use of Atropine", "from_the_text": "FIG. 1A illustrates a schematic plot of pupil diameters resulting from use of Atropine, a widely used muscarinic receptor antagonist and a pharmaceutical agent for myopia therapy. […] Considering FIG. 1A, it is observed that use of 0.01% Atropine which to date is the lowest concentration used for treatment of myopia in individuals, increases the photopic pupillary diameter by approximately 1 mm. Increasing the concentration to anywhere from 0.025% to 0.1% Atropine, increases the photopic pupil size from about 2 mm to about 3 mm. With the highest concentration of 0.5% Atropine, the increase in photopic pupil size was largest and at about 3 mm. An increase in pupil size increases aberrations of the eye. […] FIG. 1B illustrates the increase in higher order aberrations from 3rd to 6th order as determined by aberrometry for the myopic eye of an individual who has a distance refractive error of approximately −2.00 D. It is observed that there is a significant increase in aberrations with a larger pupil. An increase in the pupil size may result in a functional decrement in visual performance and one or more unwanted effects such as poorer visual performance, reduced contrast, blurred vision, increased glare and increased photophobia (sensitivity to light). […]"}, "myopia progression": {"system": "myopia progression", "details": "cited from earlier work"}, "[2]": {"system": "amplitude of accommodation", "details": "concentrations greater than 0.1% Atropine; children aged 6-12 years; cited from earlier work"}},
  "data": [
    {"smiles": "CN1[C@@H]2CC[C@H]1C[C@@H](OC(=O)C(CO)c1ccccc1)C2", "note": "(stereo partly shown) [Atropine]", "values": [
      {"measurement": "effective increase of the spherical aberration of the combined spectacle lens and eye system", "setting": "[1]", "result": "about +0.50 D"},
      {"measurement": "concentration dependence of efficacy", "setting": "myopia progression; Atropine eye drops 0.01% to 1.0%", "result": "the higher the concentration, the greater the efficacy"},
      {"measurement": "efficacy in slowing myopia progression", "setting": "myopia progression; used topically", "result": "demonstrated a level of efficacy in slowing myopia progression"},
      {"measurement": "reduction of amplitude of accommodation", "setting": "[2]", "result": "reduce the amplitude of accommodation by more than half"}
    ]}
  ]
}
